Data on 3 compounds can be found in patent US4539206A, “Topical compositions containing copper (II) complexes of 3,5-dioxo-pyrazolidine derivatives and methods of combatting inflammation with them” (Alcusal Incorporated Pty. Ltd., priority 1981, dated 1985).

The subject of series [1] is hydroxylapatite-induced paw swelling. To be noted: applied ×2; hydroxylapatite 50 mg/ml, 0.15 ml injected. The protocol: (§1) We have carried out assays for acute anti-inflammatory and anti-arthritic activities by procedures described previously in W. R. Walker, S. J. Beveridge and M. W. Whitehouse, "Anti-inflammatory Activity of a Dermally Applied Copper Salicylate Preparation (Alcusal)", Agents and Actions 10, 38 (1980).
(§2) (a) Male Wistar rats were shaved (ca 20 cm^2) behind the neck and a solution of 0.1 M copper (II) acetate containing 0.25 M phenylbutazone in DMSO was applied (5 ml/kg). The first application was made 2.5 hr before injecting sodium carrageenan solution into the paw (a 0.1 ml injection delivering 1 mg in 0.15 M NaCl) to induce oedema. A second application of the copper phenylbutazone, if made, was at 1.5 hr before the carrageenan was injected.
(§3) The swelling was measured unidimensionally as increase in paw thickness after 2 and 4 hrs using a micrometer screw gauge. Controls were treated with DMSO only.

Series [2] has as its system sodium carrageenan-induced paw oedema. Particulars: 5 ml/kg, 0.1 M copper (II) acetate containing 0.25 M phenylbutazone in DMSO, controls DMSO. As to the method:
as §1, §2, §3

The test system of series [3] is arthritis induced by arthritogenic adjuvant (M. tuberculosis in squalane). Description: anti-arthritic activity in established adjuvant arthritis, topical application. It is filed as in vivo, PVG x DA rats. Particulars: day 12 to day 16, once daily 5 ml/kg for 4 days, means ± standard error; for increase in paw thickness (mm), tail: DMSO controls 0.9 ± 0.2; for increase in paw thickness (mm), rear paws: DMSO controls 2.2 ± 0.1.

The nature of series [4]: Bio-distribution of ^64 Cu(PB)2.x DMSO after topical application to rats. The series is classed as in vivo, male white rats. Particulars: for Bio-distribution of ^64 Cu as % of Original Applied, Faeces: assumed faecal output; for Bio-distribution of ^64 Cu as % of Original Applied, Blood (20 ml): assumed total blood volume; for Bio-distribution of ^64 Cu as % of Original Applied, Urine: assumed urine output. As to the method:
(1) The copper (II) phenylbutazone complex labelled with ^64 Cu was prepared as follows: Radioactive copper (II) acetate containing 3 mCi of ^64 Cu (A.A.E.C. Lucas Heights) was mixed with copper (II) acetate monohydrate (0.250 g), phenylbutazone (0.964 g) and dissolved in DMSO (10 ml). Glycerol (2.5 ml) was added later.
Six male white rats (average weight 250 g) were anaesthetised with halothane and an area of skin (ca 20 cm^2) immediately below the neck was shaved with electric hair clippers. Two aliquots (each 0.75 ml) were applied to each rat, whilst anaesthetised, over a period of one hour.
Each rat was placed separately in an experimental cage which permitted collection of both urine and faeces. At times of 6, 24 and 48 hours after topical application, two rats were anaesthetised with ether and euthenased by decapitation in a guillotine. Each organ except the thymus, spleen and the adrenals were cut into two samples for more accurate counting. This was done on a Packard automatic γ spectrometer for periods from 1 to 10 minutes.
All counts were corrected to zero time per gram of wet tissue. After 24 and 48 hours, the faeces were dry and the activity in them is not recorded in FIG. 3.
In Table 1, the results for the location in the rats of the ^64 Cu activity at 6, 24 and 48 hours after topical application are shown.

The conditions of series [5]: Cu^2+ + 2HPB = [Cu(PB)2] + 2H^+, room temperature, DMSO, absorbance at 430 nm. As to the method: The following solutions were prepared in DMSO using stock solutions of 0.01 M copper (II) acetate (A) and 0.20 M phenylbutazone (B)
and the spectra were measured using a Varian Techtron 634S UV-visible spectrophotometer and 1 cm cells.
In FIG. 2, a plot of absorbance (arbitrary scale) at 430 nm versus molar ratio of phenylbutazone (HPB) to copper has been made. […]

Where [6] appears, read: applied ×1 (2.5 hr before carrageenan).
Where [7] appears, read: applied ×2 (2.5 and 1.5 hr before carrageenan).

Structures are written as SMILES. Like-named read-outs stand apart in the source and are kept apart here.

`CCCC[c-]1c(=O)n(-c2ccccc2)n(-c2ccccc2)c1=O.CCCC[c-]1c(=O)n(-c2ccccc2)n(-c2ccccc2)c1=O.[Cu+2]` [[Cu(PB)2].x(DMSO), copper (II) di(phenylbutazone)]: the “% inhibition of paw swelling at 2 hr” value in series [1] is reported as 42%; in series [2] (setting [6]), 34%; in series [2] (setting [7]), 65%. Moreover, the “% inhibition of paw swelling at 4 hr” value in series [1] amounted to 76%; in series [2] (setting [6]), 33%; in series [2] (setting [7]) it was 71%. Also, in series [3], the “increase in paw thickness (mm), tail” value is 0.3 ± 0.2 mm. For the same compound, the “increase in paw thickness (mm), rear paws” value in series [3] is 0.4 ± 0.1 mm. Also, the “absorption after topical application” value in series [4] (result in words) is “readily enters the bloom stream”. The dermal penetration entry in series [4] (result in words) was “excellent dermal penetration”. Besides, the “equilibrium constant, log K” value is around 4.7 in series [5] (listed as Cu(PB)2. xDMSO) and ~ 4.7 in series [5] (listed as [Cu(PB)2 ]).
For the compound `CCCC[c-]1c(=O)n(-c2ccccc2)n(-c2ccccc2)c1=O.CCCC[c-]1c(=O)n(-c2ccccc2)n(-c2ccccc2)c1=O.[64Cu+2]` [^64 Cu(PB)2.x DMSO], in series [4] (6 h), the “Bio-distribution of ^64 Cu as % of Original Applied, Adrenals” value (“Bio-distribution of ^64 Cu as % … Adrenals” for short) is listed as “-- (less than 0.004%)”; the “Bio-distribution of ^64 Cu as % of Original Applied, Brain” value (“Bio-distribution of ^64 Cu as % … Brain” for short) was 0.02%; the “Bio-distribution of ^64 Cu as % of Original Applied, Heart” value (from here on “Bio-distribution of ^64 Cu as % … Heart”) amounted to 0.01%; the “Bio-distribution of ^64 Cu as % of Original Applied, Kidney” value (from here on “Bio-distribution of ^64 Cu as % … Kidney”) is listed as 0.04%. For the same compound, in series [4] (6 h), the “Bio-distribution of ^64 Cu as % of Original Applied, Liver” value (shortened to “Bio-distribution of ^64 Cu as % … Liver”) turned out to be 6.22%; the “Bio-distribution of ^64 Cu as % of Original Applied, Skin (application site)” value stood at 5.34%; the “Bio-distribution of ^64 Cu as % of Original Applied, Spleen” value (shortened to “Bio-distribution of ^64 Cu as % … Spleen”) was 0.01%; the “Bio-distribution of ^64 Cu as % of Original Applied, Thymus” value (“Bio-distribution of ^64 Cu as % … Thymus” below) is listed as 0.01%. In addition, in series [4] (6 h), the “Bio-distribution of ^64 Cu as % of Original Applied, Faeces” value (from here on “Bio-distribution of ^64 Cu as % … Faeces”) is given as 0.07%; the “Bio-distribution of ^64 Cu as % of Original Applied, Blood (20 ml)” value (shortened to “Bio-distribution of ^64 Cu as % … (20 ml)”) came out at 0.09%; the “Bio-distribution of ^64 Cu as % of Original Applied, Urine” value (“Bio-distribution of ^64 Cu as % … Urine” for short) is given as 0.04%. In series [4] (24 h), the “Bio-distribution of ^64 Cu as % … Adrenals” value was “-- (less than 0.004%)”; the “Bio-distribution of ^64 Cu as % … Brain” value is on record as 0.01%; the “Bio-distribution of ^64 Cu as % … Heart” value is on record as “-- (less than 0.004%)”; the “Bio-distribution of ^64 Cu as % … Kidney” value was determined as 0.04%. Further, in series [4] (24 h), the “Bio-distribution of ^64 Cu as % … Liver” value worked out at 0.17%; the “Bio-distribution of ^64 Cu as % of Original Applied, Skin (application site)” value is listed as 3.81%; the “Bio-distribution of ^64 Cu as % … Spleen” value is reported as “-- (less than 0.004%)”; the “Bio-distribution of ^64 Cu as % … Thymus” value is on record as “-- (less than 0.004%)”. In series [4] (24 h), the “Bio-distribution of ^64 Cu as % … Faeces” value amounted to 28.9%; the “Bio-distribution of ^64 Cu as % … (20 ml)” value turned out to be 0.08%; the “Bio-distribution of ^64 Cu as % … Urine” value is 0.21%. Further, in series [4] (48 h), the “Bio-distribution of ^64 Cu as % … Adrenals” value is recorded as “-- (less than 0.004%)”; the “Bio-distribution of ^64 Cu as % … Brain” value is listed as 0.01%; the “Bio-distribution of ^64 Cu as % … Heart” value is given as “-- (less than 0.004%)”; the “Bio-distribution of ^64 Cu as % … Kidney” value was 0.04%. Moreover, in series [4] (48 h), the “Bio-distribution of ^64 Cu as % … Liver” value is listed as 0.15%; the “Bio-distribution of ^64 Cu as % of Original Applied, Skin (application site)” value was determined as 1.02%; the “Bio-distribution of ^64 Cu as % … Spleen” value is reported as 0.01%; the “Bio-distribution of ^64 Cu as % … Thymus” value is “-- (less than 0.004%)”. Also, in series [4] (48 h), the “Bio-distribution of ^64 Cu as % … Faeces” value is given as 49.9%; the “Bio-distribution of ^64 Cu as % … (20 ml)” value came out at 0.08%; the “Bio-distribution of ^64 Cu as % … Urine” value is reported as 0.40%. For the same compound, the “^64 Cu found in the faeces” value in series [4] (after two days, topical application, 2880 min) was “about 50%”. The “clearance of ^64 Cu from the system” value in series [4] (result in words) is given as “cleared from the system in several days”. In series [4] (result in words, 6 to 48 h), the “activity of ^64 Cu in the skin at the site of application” value is “decreases linearly with time”.
On to `CCCCC1C(=O)N(c2ccccc2)N(c2ccccc2)C1=O` [HPB, phenylbutazone, reference compound], for which, in series [3], the “increase in paw thickness (mm), tail” value stood at 0.3 ± 0.1 mm and the “increase in paw thickness (mm), rear paws” value was 1.0 ± 0.2 mm.
